According to ChEMBL document CHEMBL3638977, “Heteroaryl sodium channel inhibitors” (2015):

Molecular target: Sodium channel protein type 9 subunit alpha (Homo sapiens, UniProt Q15858)
Assay: In Vitro Assay: 293 cells stably transfected with either Nav 1.7 or with Nav 1.5 were recorded in population patch-clamp mode with the IonWorks® Quattro automated electrophysiology system in accordance with the manufacturer's specifications (Molecular Devices, LLC, Sunnyvale, Calif.). Sodium channel currents were measured in response to a train of depolarizations that induced successively greater inactivation.Cells were held at −110 mV for three seconds (Nav 1.7) or half a second (Nav 1.5) from a holding voltage of −15 mV, then put through a series of 26 pulses of 150 msec duration to −20 mV at a frequency of 5 Hz. Cells were then left unclamped for a period of 3 to 8 minutes while a single concentration of test compound was added. Cells were then reclamped and put through the same voltage protocol. Current at the end of the 26th pulse to −20 mV was subtracted from the peak current evoked by the 26th pulse to −20 mV to correct for leak current.
Format: cell-based

Sodium channel protein type 9 subunit alpha, sequence (Q15858 whole entry): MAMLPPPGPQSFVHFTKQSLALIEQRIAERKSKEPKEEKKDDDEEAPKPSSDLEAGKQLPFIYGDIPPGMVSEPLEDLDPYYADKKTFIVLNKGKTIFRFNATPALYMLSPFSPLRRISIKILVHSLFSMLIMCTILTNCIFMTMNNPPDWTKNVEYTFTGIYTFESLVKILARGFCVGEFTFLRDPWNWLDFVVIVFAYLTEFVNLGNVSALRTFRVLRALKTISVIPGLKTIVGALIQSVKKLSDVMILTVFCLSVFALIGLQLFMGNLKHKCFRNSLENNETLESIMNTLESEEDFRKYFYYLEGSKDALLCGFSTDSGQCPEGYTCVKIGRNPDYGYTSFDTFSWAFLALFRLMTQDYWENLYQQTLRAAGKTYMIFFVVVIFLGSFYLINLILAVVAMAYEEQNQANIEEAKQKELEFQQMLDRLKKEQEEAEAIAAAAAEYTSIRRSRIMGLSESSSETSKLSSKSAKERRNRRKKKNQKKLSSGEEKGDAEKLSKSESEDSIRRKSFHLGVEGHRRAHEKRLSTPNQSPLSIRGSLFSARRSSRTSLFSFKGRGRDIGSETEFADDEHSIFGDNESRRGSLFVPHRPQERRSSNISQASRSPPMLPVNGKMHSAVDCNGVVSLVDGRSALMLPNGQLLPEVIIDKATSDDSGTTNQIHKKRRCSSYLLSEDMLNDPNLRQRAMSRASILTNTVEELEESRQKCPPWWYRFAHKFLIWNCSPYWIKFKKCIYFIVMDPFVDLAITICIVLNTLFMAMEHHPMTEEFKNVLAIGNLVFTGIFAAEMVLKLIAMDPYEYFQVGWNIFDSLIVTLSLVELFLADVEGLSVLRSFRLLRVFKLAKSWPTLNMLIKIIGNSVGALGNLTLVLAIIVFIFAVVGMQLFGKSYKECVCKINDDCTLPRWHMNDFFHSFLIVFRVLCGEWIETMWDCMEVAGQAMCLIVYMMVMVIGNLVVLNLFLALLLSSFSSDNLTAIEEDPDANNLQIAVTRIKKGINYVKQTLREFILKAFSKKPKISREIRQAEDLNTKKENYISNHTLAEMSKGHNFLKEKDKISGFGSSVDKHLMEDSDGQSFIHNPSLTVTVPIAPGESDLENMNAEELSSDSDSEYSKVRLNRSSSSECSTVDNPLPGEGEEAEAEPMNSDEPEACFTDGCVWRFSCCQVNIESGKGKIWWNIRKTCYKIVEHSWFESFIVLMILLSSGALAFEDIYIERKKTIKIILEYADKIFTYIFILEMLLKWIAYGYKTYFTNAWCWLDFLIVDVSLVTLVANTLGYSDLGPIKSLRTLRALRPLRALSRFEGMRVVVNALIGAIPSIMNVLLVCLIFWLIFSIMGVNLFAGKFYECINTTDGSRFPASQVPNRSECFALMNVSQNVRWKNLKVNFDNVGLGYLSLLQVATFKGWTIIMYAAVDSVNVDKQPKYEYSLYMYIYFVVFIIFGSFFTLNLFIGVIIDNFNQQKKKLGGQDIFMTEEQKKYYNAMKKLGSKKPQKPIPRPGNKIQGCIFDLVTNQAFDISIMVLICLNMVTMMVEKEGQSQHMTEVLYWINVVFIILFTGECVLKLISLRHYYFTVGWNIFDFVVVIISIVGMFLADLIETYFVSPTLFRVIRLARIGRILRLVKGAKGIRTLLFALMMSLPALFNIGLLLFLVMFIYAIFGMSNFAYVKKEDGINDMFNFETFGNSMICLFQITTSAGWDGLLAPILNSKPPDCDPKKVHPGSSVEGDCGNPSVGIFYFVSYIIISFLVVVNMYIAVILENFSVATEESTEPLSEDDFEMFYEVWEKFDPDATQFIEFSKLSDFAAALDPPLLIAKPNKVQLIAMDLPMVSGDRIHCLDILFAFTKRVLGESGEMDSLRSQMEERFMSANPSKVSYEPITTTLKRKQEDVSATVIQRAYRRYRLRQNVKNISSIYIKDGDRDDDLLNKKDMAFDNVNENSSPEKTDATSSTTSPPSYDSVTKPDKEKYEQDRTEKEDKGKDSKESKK

Compound	IC50
Cn1cc(-c2cccc3ccccc23)c2ccc(S(=O)(=O)Nc3ncns3)cc21	0.306 µM
Cn1cc(-c2ccc(C(F)(F)F)c(Cl)c2)c2ccc(S(=O)(=O)Nc3ncns3)cc21	3.19 µM
COc1cc(F)ccc1-c1cn(C)c2cc(S(=O)(=O)Nc3ncns3)ccc12	0.338 µM
COc1cc(OC)cc(-c2cn(C)c3cc(S(=O)(=O)Nc4ncns4)ccc23)c1	5.96 µM
Cn1cc(-c2ccc(F)c(C#N)c2)c2ccc(S(=O)(=O)Nc3ncns3)cc21	1.28 µM
Cn1cc(-c2ccc(C#N)c(F)c2)c2ccc(S(=O)(=O)Nc3ncns3)cc21	3.06 µM
Cn1cc(-c2ccc(OC(F)(F)F)cc2)c2ccc(S(=O)(=O)Nc3ncns3)cc21	4.67 µM
Cn1cc(-c2cccc(OC(F)(F)F)c2)c2ccc(S(=O)(=O)Nc3ncns3)cc21	0.87 µM
Cn1cc(-c2cccc(C#N)c2)c2ccc(S(=O)(=O)Nc3ncns3)cc21	2 µM
Cn1cc(-c2ccccc2)c2ccc(S(=O)(=O)Nc3ncns3)cc21	1.55 µM
COc1ccc(-c2cn(C)c3cc(S(=O)(=O)Nc4ncns4)ccc23)c(OC)c1	0.904 µM
Cn1cc(-c2cccc3ncccc23)c2ccc(S(=O)(=O)Nc3ncns3)cc21	0.663 µM
Cn1cc(-c2cccc(S(C)(=O)=O)c2)c2ccc(S(=O)(=O)Nc3ncns3)cc21	0.528 µM
COc1ccc(-c2cn(C)c3cc(S(=O)(=O)Nc4ncns4)ccc23)c2ccccc12	2.64 µM
COc1ccc(-c2cn(C)c3cc(S(=O)(=O)Nc4ncns4)ccc23)c(Cl)c1	2.31 µM
Cc1noc(C)c1-c1cn(C)c2cc(S(=O)(=O)Nc3ncns3)ccc12	2.62 µM
Cn1cc(-c2ccc(Br)cc2C(F)(F)F)c2ccc(S(=O)(=O)Nc3ncns3)cc21	3.53 µM
Cn1cc(-c2ccccc2C(F)(F)F)c2ccc(S(=O)(=O)Nc3ncns3)cc21	6 µM
Cc1cnc(N)c(-c2cn(C)c3cc(S(=O)(=O)Nc4ncns4)ccc23)c1	5.95 µM
Cc1cc(C#N)ccc1-c1cn(C)c2cc(S(=O)(=O)Nc3ncns3)ccc12	2.35 µM
CN(C)c1cccc(-c2cn(C)c3cc(S(=O)(=O)Nc4ncns4)ccc23)c1	4.2 µM
Cn1cc(-c2cccc(C(F)(F)F)c2)c2ccc(S(=O)(=O)Nc3ncns3)cc21	3.81 µM
COc1ccc(-c2cn(C)c3cc(S(=O)(=O)Nc4ncns4)ccc23)cc1C(F)(F)F	4.48 µM
Cn1nccc1-c1cn(C)c2cc(S(=O)(=O)Nc3ncns3)ccc12	7.14 µM
